{"source": "patent US20230085307A1", "about": "“PYRIDAZINONE COMPOUND AND HERBICIDE” (NISSAN CHEMICAL CORPORATION, priority 2019, published 2023)", "key": {"barnyard grass": {"test_system": "barnyard grass", "test": "Test Example 3: herbicidal effect by foliage application, Wagner pot (Table 18, symbol H)", "assay_type": "in vivo, barnyard grass (Echinochloa crus-galli)", "experimental": "(§1) [Test Example 3] Herbicidal Effect Test by Foliage Application After alluvial soil was placed into 1/10000 are of Wagner pot, water was poured and mixed to form a submerged condition having a water depth of 0.1 cm to 0.5 cm. Seeds of barnyard grass, Chinese sprangletop, rice flat sedge, and rice were sowed and the pot was placed in a greenhouse at 25° C. to 30° C. for growth of the plants. After 14-day growth of the plants, the emulsion agent of the compound of the present invention prepared according to Formulation Example 2 was diluted with water so as to achieve a predetermined herbicide amount, and the diluted emulsion agent was uniformly applied to a foliage part with a small-sized spray. Three weeks after the herbicide application, the effect of the herbicide on each plant was evaluated according to the criteria of Test Example 1."}, "Chinese sprangletop": {"test_system": "Chinese sprangletop", "test": "Test Example 3: herbicidal effect by foliage application, Wagner pot (Table 18, symbol D)", "assay_type": "in vivo, chinese sprangletop (Leptochloa chinensis)", "experimental": "as §1"}, "rice flat sedge": {"test_system": "rice flat sedge", "test": "Test Example 3: herbicidal effect by foliage application, Wagner pot (Table 18, symbol E)", "assay_type": "in vivo, rice flat sedge (Cyperus iria)", "experimental": "as §1"}, "[1]": {"settings": "amount of applied herbicide 320 g/ha"}, "[2]": {"settings": "amount of applied herbicide 101 g/ha"}, "[3]": {"settings": "amount of applied herbicide 125 g/ha"}}, "data": [{"smiles": "CCCC(=O)Oc1c(C)nn(C)c(=O)c1-c1c(-c2ccc(OC)nc2OC)sc2ccccc12", "note": "[1-080]", "values": [{"measurement": "herbicidal effect on H (barnyard grass), rating 0-5", "setting": "barnyard grass; 320 g/ha", "result": "0 (Herbicidal rate of 5% or less (almost no effect))"}, {"measurement": "herbicidal effect on D (Chinese sprangletop), rating 0-5", "setting": "Chinese sprangletop; 320 g/ha", "result": "0 (Herbicidal rate of 5% or less (almost no effect))"}, {"measurement": "herbicidal effect on E (rice flat sedge), rating 0-5", "setting": "rice flat sedge; 320 g/ha", "result": "4 (Herbicidal rate of 70% or more and less than 90%)"}]}, {"smiles": "COc1nn(C)c(=O)c(-c2c(-c3ccc(Oc4ccccc4)cc3)sc3ccccc23)c1O", "note": "[1-164]", "values": [{"measurement": "herbicidal effect on H (barnyard grass), rating 0-5", "setting": "barnyard grass; 80 g/ha", "result": "4 (Herbicidal rate of 70% or more and less than 90%)"}, {"measurement": "herbicidal effect on D (Chinese sprangletop), rating 0-5", "setting": "Chinese sprangletop; 80 g/ha", "result": "4 (Herbicidal rate of 70% or more and less than 90%)"}, {"measurement": "herbicidal effect on E (rice flat sedge), rating 0-5", "setting": "rice flat sedge; 80 g/ha", "result": "4 (Herbicidal rate of 70% or more and less than 90%)"}]}, {"smiles": "CCCC(=O)Oc1c(OC)nn(C)c(=O)c1-c1c(-c2ccoc2)sc2ccccc12", "note": "[1-191]", "values": [{"measurement": "herbicidal effect on H (barnyard grass), rating 0-5", "setting": "barnyard grass; 80 g/ha", "result": "2 (Herbicidal rate of 20% or more and less than 40%)"}, {"measurement": "herbicidal effect on D (Chinese sprangletop), rating 0-5", "setting": "Chinese sprangletop; 80 g/ha", "result": "5 (Herbicidal rate of 90% or more (almost completely withered))"}, {"measurement": "herbicidal effect on E (rice flat sedge), rating 0-5", "setting": "rice flat sedge; 80 g/ha", "result": "4 (Herbicidal rate of 70% or more and less than 90%)"}]}, {"smiles": "Cc1ccc2sc(-c3ccc4ccccc4c3)c(-c3c(O)c(C)nn(C)c3=O)c2c1", "note": "[2-154]", "values": [{"measurement": "herbicidal effect on H: barnyard grass", "setting": "barnyard grass; [1]", "result": "3 (Herbicidal rate of 40% or more and less than 70%)"}, {"measurement": "herbicidal effect on D: Chinese sprangletop", "setting": "Chinese sprangletop; [1]", "result": "0 (Herbicidal rate of 5% or less (almost no effect))"}, {"measurement": "herbicidal effect on E: rice flat sedge", "setting": "rice flat sedge; [1]", "result": "3 (Herbicidal rate of 40% or more and less than 70%)"}]}, {"smiles": "CCCC(=O)Oc1c(C)nn(C)c(=O)c1-c1c(-c2cc(C(F)(F)F)cc(C(F)(F)F)c2)sc2ccc(F)cc12", "note": "[2-359]", "values": [{"measurement": "herbicidal effect on H: barnyard grass", "setting": "barnyard grass; [1]", "result": "3 (Herbicidal rate of 40% or more and less than 70%)"}, {"measurement": "herbicidal effect on D: Chinese sprangletop", "setting": "Chinese sprangletop; [1]", "result": "5 (Herbicidal rate of 90% or more (almost completely withered))"}, {"measurement": "herbicidal effect on E: rice flat sedge", "setting": "rice flat sedge; [1]", "result": "3 (Herbicidal rate of 40% or more and less than 70%)"}]}, {"smiles": "COc1cc(F)ccc1-c1sc2ccc(S(C)(=O)=O)cc2c1-c1c(O)c(C)nn(C)c1=O", "note": "[2-377]", "values": [{"measurement": "herbicidal effect on H: barnyard grass", "setting": "barnyard grass; [2]", "result": "4 (Herbicidal rate of 70% or more and less than 90%)"}, {"measurement": "herbicidal effect on D: Chinese sprangletop", "setting": "Chinese sprangletop; [2]", "result": "3 (Herbicidal rate of 40% or more and less than 70%)"}, {"measurement": "herbicidal effect on E: rice flat sedge", "setting": "rice flat sedge; [2]", "result": "3 (Herbicidal rate of 40% or more and less than 70%)"}]}, {"smiles": "CCn1nc(C)c(O)c(-c2c(-c3ccc(Cl)cc3)sc3ccc(F)cc23)c1=O", "note": "[2-400]", "values": [{"measurement": "herbicidal effect on D: Chinese sprangletop", "setting": "Chinese sprangletop; [1]", "result": "5 (Herbicidal rate of 90% or more (almost completely withered))"}, {"measurement": "herbicidal effect on E: rice flat sedge", "setting": "rice flat sedge; [1]", "result": "5 (Herbicidal rate of 90% or more (almost completely withered))"}]}, {"smiles": "Cc1n[nH]c(=O)c(-c2c(-c3ccc(F)cc3)sc3ccc(F)cc23)c1O", "note": "[2-428]", "values": [{"measurement": "herbicidal effect on H: barnyard grass", "setting": "barnyard grass; [3]", "result": "4 (Herbicidal rate of 70% or more and less than 90%)"}, {"measurement": "herbicidal effect on D: Chinese sprangletop", "setting": "Chinese sprangletop; [3]", "result": "0 (Herbicidal rate of 5% or less (almost no effect))"}, {"measurement": "herbicidal effect on E: rice flat sedge", "setting": "rice flat sedge; [3]", "result": "0 (Herbicidal rate of 5% or less (almost no effect))"}]}, {"smiles": "Cc1nn(Cc2ccccc2)c(=O)c(-c2c(-c3ccc(Cl)cc3)sc3ccc(F)cc23)c1O", "note": "[2-434]", "values": [{"measurement": "herbicidal effect on H: barnyard grass", "setting": "barnyard grass; [1]", "result": "2 (Herbicidal rate of 20% or more and less than 40%)"}, {"measurement": "herbicidal effect on E: rice flat sedge", "setting": "rice flat sedge; [1]", "result": "2 (Herbicidal rate of 20% or more and less than 40%)"}]}, {"smiles": "Cc1nn(C)c(=O)c(-c2c(-c3ccc(OC(F)F)cc3)sc3c(C)cccc23)c1O", "note": "[4-128]", "values": [{"measurement": "herbicidal effect on barnyard grass (H)", "setting": "barnyard grass; 320 g/ha", "result": "3 (Herbicidal rate of 40% or more and less than 70%)"}, {"measurement": "herbicidal effect on Chinese sprangletop (D)", "setting": "Chinese sprangletop; 320 g/ha", "result": "0 (Herbicidal rate of 5% or less (almost no effect))"}, {"measurement": "herbicidal effect on rice flat sedge (E)", "setting": "rice flat sedge; 320 g/ha", "result": "5 (Herbicidal rate of 90% or more (almost completely withered))"}]}, {"smiles": "Cc1nn(C)c(=O)c(-c2c(-c3ccc(C(=O)O)cc3)sc3cc(F)c(F)cc23)c1O", "note": "[5-027]", "values": [{"measurement": "herbicidal effect on barnyard grass (H)", "setting": "barnyard grass; 320 g/ha", "result": "3 (Herbicidal rate of 40% or more and less than 70%)"}, {"measurement": "herbicidal effect on Chinese sprangletop (D)", "setting": "Chinese sprangletop; 320 g/ha", "result": "0 (Herbicidal rate of 5% or less (almost no effect))"}, {"measurement": "herbicidal effect on rice flat sedge (E)", "setting": "rice flat sedge; 320 g/ha", "result": "0 (Herbicidal rate of 5% or less (almost no effect))"}]}, {"smiles": "CCOc1cc(F)ccc1-c1cc2c(-c3c(O)c(C)nn(C)c3=O)c(-c3ccc(F)cc3OCC)sc2cc1OC", "note": "[5-081]", "values": [{"measurement": "herbicidal effect on barnyard grass (H)", "setting": "barnyard grass; 320 g/ha", "result": "2 (Herbicidal rate of 20% or more and less than 40%)"}, {"measurement": "herbicidal effect on Chinese sprangletop (D)", "setting": "Chinese sprangletop; 320 g/ha", "result": "2 (Herbicidal rate of 20% or more and less than 40%)"}, {"measurement": "herbicidal effect on rice flat sedge (E)", "setting": "rice flat sedge; 320 g/ha", "result": "0 (Herbicidal rate of 5% or less (almost no effect))"}]}, {"smiles": "Cc1cc2sc(-c3ccc(C(F)(F)F)cc3)c(-c3c(O)c(C)nn(C)c3=O)c2cc1C", "note": "[5-096]", "values": [{"measurement": "herbicidal effect on barnyard grass (H)", "setting": "barnyard grass; 320 g/ha", "result": "3 (Herbicidal rate of 40% or more and less than 70%)"}, {"measurement": "herbicidal effect on Chinese sprangletop (D)", "setting": "Chinese sprangletop; 320 g/ha", "result": "2 (Herbicidal rate of 20% or more and less than 40%)"}, {"measurement": "herbicidal effect on rice flat sedge (E)", "setting": "rice flat sedge; 320 g/ha", "result": "2 (Herbicidal rate of 20% or more and less than 40%)"}]}, {"smiles": "Cc1ccc(-c2oc3ccc(F)cc3c2-c2c(O)c(C)nn(C)c2=O)cc1", "note": "[9-017]", "values": [{"measurement": "Herbicidal effect on H (barnyard grass), foliage application", "setting": "barnyard grass; [1]", "result": "5 (Herbicidal rate of 90% or more (almost completely withered))"}, {"measurement": "Herbicidal effect on D (Chinese sprangletop), foliage application", "setting": "Chinese sprangletop; [1]", "result": "3 (Herbicidal rate of 40% or more and less than 70%)"}, {"measurement": "Herbicidal effect on E (rice flat sedge), foliage application", "setting": "rice flat sedge; [1]", "result": "5 (Herbicidal rate of 90% or more (almost completely withered))"}]}, {"smiles": "Cc1nn(C)c(=O)c(-c2c(-c3ccc(C(F)(F)F)cc3)oc3ccc(F)cc23)c1O", "note": "[9-029]", "values": [{"measurement": "Herbicidal effect on H (barnyard grass), foliage application", "setting": "barnyard grass; [1]", "result": "4 (Herbicidal rate of 70% or more and less than 90%)"}, {"measurement": "Herbicidal effect on D (Chinese sprangletop), foliage application", "setting": "Chinese sprangletop; [1]", "result": "3 (Herbicidal rate of 40% or more and less than 70%)"}, {"measurement": "Herbicidal effect on E (rice flat sedge), foliage application", "setting": "rice flat sedge; [1]", "result": "5 (Herbicidal rate of 90% or more (almost completely withered))"}]}]}
